Source: US20130142739A1, “PROCESS FOR THE SYNTHESIS OF ISOTHIOCYANATES AND DERIVATIVES THEREOF AND USES OF SAME” (Auriga International, priority 2010, published 2013)
Where two headings read alike, the source gives them in different places.

Tested on: human melanocytes of the SKMel type
Test: Depigmentation: melanin production by melanocytes in culture, melanin content by spectrophotometry
Type: cell-based
Conditions: for Eff./Ref. to 5 μM (relative activity with respect to kojic acid at the same concentration): kojic acid = 1; for activity at 5 µM: SK-MEL3, 72 h, read-out: Resid. Pig. (%) (percentage of residual pigmentation); for residual pigmentation percentage: 100 μM
Protocol: Various synthesized molecules were tested in order to determine their depigmenting power. The idea was to evaluate the effect of each of them on the production of melanin by melanocytes maintained in a culture medium.
For these tests, 2 lines of melanocytes were cultivated, human melanocytes of the SKMel type on the one hand and a murine line of the B16F10 type on the other hand. Here, we only show the results obtained on the human line.
The melanin content was determined by spectrophotometry, after 3 days of incubation in the presence of the molecule to be tested and cell lysis.
Kojic acid, a well-known depigmenting agent is used as a reference for making a hierarchy of the results.
For each measurement, the analyses were repeated. The indicated value corresponds to the calculated average. When the experiments are repeated, the average variation coefficient of the residual pigmentation percentage is of the order of 3% (comprised between 1.5% and 6% (for 3 tests).
This list is neither exhaustive nor limiting and the same type of results was obtained for the other molecules.

[1] = 5 μM, human line SKMel, 3 days of incubation, melanin vs control culture (cells alone)

| Compound | Eff./Ref. to 5 μM (relative activity with respect to kojic acid at the same concentration) (5 μM, human line SKMel) | activity at 5 µM [1] | activity at 5 µM (Homo sapiens) | residual pigmentation percentage (human line SKMel) |
| --- | --- | --- | --- | --- |
| C[S+]([O-])CCCCN=C=S (stereo not shown) | 22 | 34% |  |  |
| [O-][S+](CCCCN=C=S)c1ccccc1 (stereo not shown) | 10 | 71% |  |  |
| CC[S+]([O-])CCCCN=C=S (stereo not shown) | 12 |  | 63% |  |
| CS(=O)(=O)CCCCN=C=S | 15 | 54% |  |  |
| CC(=O)CCCCN=C=S | 5 | 84% |  |  |
| C[S+]([O-])CCCCNC(=S)NCCCC[S+](C)[O-] (stereo not shown) [Example 9, 1,3-bis-(4-(methylsulfinyl)butyl)-thiourea] | 27 | 20% |  | 14% |
| O=c1cc(CO)occ1O [kojic acid, Kojic acid, reference compound] | 1 | 97% |  | 73% |
| C[S+]([O-])CCCCN (stereo not shown) [reference compound] | 11 | 67% |  |  |
| C1CCNCC1 [reference compound] | 17 | 50% |  |  |
| C1COCCN1 [reference compound] | 5 | 86% |  |  |
